What was measured:
Aspc1 = assay: Combination screen PDAC cell lines (CellTiter-Glo); type: cell-based; settings: Aspc1
Procedure: (§1) A panel of CRC and PDAC cell lines was assessed and combination partners of potential clinical relevance for the respective tumor indications were used for evaluation of combination effects (CRC: irinotecan, oxaliplatin, 5-FU, MDM2 inhibitor (RG7388), Bcl-2 inhibitor (ABT199); PDAC: Abraxane, Paclitaxel, Gemcitabine, Doxorubicin, MDM2i (RG7388), Bc12i (ABT199), Bortezomib, Cyclopamine, PARP inhibitor (PJ34)).
(§2) Cells were seeded (numbers vary depending on the cell line) in black 96-well microplate with clear, flat bottom and incubated overnight at 37° C. and 5% CO2. After checking the adherence/confluence of cells, the medium was removed and 100 μl of fresh medium containing the corresponding compound was added to each well. A sequential dilution series (1:4) of 8 concentrations per compound (n=3) were used. Corresponding DMSO concentration and media alone were used as controls.
(§3) After incubation for 3 days at 37° C. and 5% CO2, 100 μl per well CellTiter-Glo reagent (Promega) was added to the plate. Luminescence was measured after 30 minutes agitation at room temperature. IC50-values were calculated with XL-Fit software. Each experiment with one compound was repeated at least twice.
(§4) Cells were seeded (numbers vary depending on the cell line) in black 96-well microplate with clear, flat bottom and incubated overnight at 37° C. and 5% CO2. After checking the adherence/confluence of cells, the medium was removed and 100 μl of fresh medium containing the corresponding compound or combination was added to each well.
(§5) A sequential 1:3 dilution series of 9 concentrations of Drozitumab/anti-human-Fc was done on a 96-well PP-V-bottom microplate (n=6). […] 25 μl/well of the Drozitumab/anti-human-Fc series were then transferred to the cells.
(§6) After incubation for 3 days at 37° C. and 5% CO2 100 μl per well CellTiter-Glo reagent (Promega) were given to the plates. Luminescence was measured after 30 minutes agitation at room temperature.
(§7) For each concentration of Drozitumab/anti-human-Fc and Drozitumab/anti-human-Fc+compound triplicates were done on the same plate and each experiment was repeated at least twice.

Capan2 = assay: Combination screen PDAC cell lines (CellTiter-Glo); type: cell-based; settings: Capan2
Procedure: as §1, §2, §3, §4, §5, §6, §7

Panc1 = assay: Combination screen PDAC cell lines (CellTiter-Glo); type: cell-based; settings: Panc1
Procedure: as §1, §2, §3, §4, §5, §6, §7

Bxpc3 = assay: Combination screen PDAC cell lines (CellTiter-Glo); type: cell-based; settings: Bxpc3
Procedure: as §1, §2, §3, §4, §5, §6, §7

[1] = test system: Sarc4605 sarcoma xenograft; assay: Sarc4605 sarcoma fragment based patient derived xenograft model (PDX); type: in vivo, nude mice; settings: doxorubicin alone 5 mg/kg q7d
[2] = test system: LOX-IMVI desmoplastic melanoma xenograft; assay: LOX-IMVI desmoplastic melanoma cell line based xenograft model; type: in vivo, nude mice; settings: doxorubicin alone 5 mg/kg q7d
From the text: The in vivo antitumor efficacy of the bispecific antibody DR5-FAP (DR5 binder: VH SEQ ID NO.:7, VL SEQ ID NO.: 8, FAP binder: VH SEQ ID NO.:15, VL SEQ ID NO.: 16) could be detected in cell and fragment based patient derived (PDX) models of various tumor origin (e.g. CRC, pancreatic cancer, desmoplastic melanoma and sarcoma) transplanted on nude mice. As example data for combination efficacy of bispecific antibody DR5-FAP (DR5 binder: VH SEQ ID NO.:7, VL SEQ ID NO.: 8, FAP binder: VH SEQ ID NO.:15, VL SEQ ID NO.: 16) and chemotherapeutics that activate the intrinsic apoptosis pathway are shown for the CRC xenograft model DLD-1 and HCT116 (cell line based, co-injection model) and Co5896 (fragment based).
The bispecific antibody DR5-FAP (DR5 binder: VH SEQ ID NO.:7, VL SEQ ID NO.: 8, FAP binder: VH SEQ ID NO.:15, VL SEQ ID NO.: 16) was provided as stock solution from Roche, Penzberg, Germany. Antibody buffer included histidine. Antibody solution was diluted appropriately in buffer from stock prior injections. An Fc mutant of the prior art DR5 specific antibody Drozitumab was provided as stock solution from Roche, Penzberg, Germany. This antibody comprises three amino acid substitutions in the Fc domain that abolish binding to an activating or inhibitory Fc receptor and/or effector function wherein said amino acid substitutions are L234A, L235A and P329G. […]

FcγR mutant mice = settings: cited from earlier work
[3] = clinical studies; cited from earlier work
[4] = second figure of mono/combo, n.s. = not significant

COc1cccc2c1C(=O)c1c(O)c3c(c(O)c1C2=O)C[C@@](O)(C(=O)CO)C[C@@H]3O[C@H]1C[C@H](N)[C@H](O)[C@H](C)O1 [Doxorubicin, (7S,9S)-7-[(2R,4S,5S,6S)-4-amino-5-hydroxy-6-methyloxan-2-yl]oxy-6,9,11-trihydroxy-9-(2-hydroxyacetyl)-4-methoxy-8,10-dihydro-7H-tetracene-5,12-dione]
Fold change IC50 (DR5 ab mono vs combo) (Aspc1; n.s. = not significant): 5 | % max. inhibition (combo) (Aspc1; [4]): n.s. | IC50 (Aspc1; Homo sapiens, 72 h, agent alone, 3 days, read-out: IC50 monotherapy): 300 nM | % max. inhibition (combo) (Capan2; [4]): n.s. | IC50 (Capan2; Homo sapiens, Capan-2, 72 h, agent alone, 3 days, read-out: IC50 monotherapy): 1500 nM | IC50 (Panc1; Homo sapiens, PANC-1, 72 h, agent alone, 3 days, read-out: IC50 monotherapy): 620 nM | Fold change IC50 (DR5 ab mono vs combo) (Panc1; n.s. = not significant): n.s. | % max. inhibition (combo) (Panc1; [4]): n.s. | % max. inhibition (mono) (Bxpc3; first figure of mono/combo): 25% | Fold change IC50 (DR5 ab mono vs combo) (Bxpc3; n.s. = not significant): 2 | % max. inhibition (combo) (Bxpc3; [4]): 70% | IC50 (Bxpc3; Homo sapiens, BXPC-3, 72 h, agent alone, 3 days, read-out: IC50 monotherapy): 4000 nM | tumor growth inhibition [1]: 77% | tumor growth inhibition [2]: 77%

Drozitumab: fully human DR5 agonistic antibody described in US2007/0031414 and WO 2006/083971
in vivo activity (FcγR mutant mice): inactive | maximally tolerated dose (MTD) [3]: > 20 mg/kg

Reference: patent US20180064808A1, “COMBINATION THERAPY OF BISPECIFIC ANTIBODIES SPECIFIC FOR FAP AND DR5 AND CHEMOTHERAPEUTIC AGENTS” (Hoffmann-La Roche Inc., priority 2014, published 2018)
